Experimental data from ChEMBL document CHEMBL1201862, “PubChem BioAssay data set” (2004).
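96-well plates; 48 h exposure; 5 concentrations. Endpoints by linear interpolation between flanking doses. Not reached: highest tested concentration assigned. GI50 marks 50% less growth.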 The source made the active and inactive calls. No stated cut-off is given here; in the data, active = GI50 up to about 1.1 µM and inactive = higher.

Columns and labels:
Assay in all cases: growth of human tumour cells (NCI), 48 h
MDA-MB-231 = tested on: MDA-MB-231
EKVX = tested on: EKVX
SR = tested on: SR
MDA-N = tested on: MDA-N
OVCAR-8 = tested on: OVCAR-8
HCC 2998 = tested on: HCC 2998
CCRF-CEM = tested on: CCRF-CEM
NCI/ADR-RES = tested on: NCI/ADR-RES
SK-OV-3 = tested on: SK-OV-3
A549 = tested on: A549
HCT-15 = tested on: HCT-15
UACC-62 = tested on: UACC-62
SF-268 = tested on: SF-268
786-0 = tested on: 786-0
HCT-116 = tested on: HCT-116
M14 = tested on: M14
K562 = tested on: K562
RPMI-8226 = tested on: RPMI-8226
UACC-257 = tested on: UACC-257
MDA-MB-435 = tested on: MDA-MB-435
HOP-62 = tested on: HOP-62
ACHN = tested on: ACHN
SNB-19 = tested on: SNB-19
OVCAR-4 = tested on: OVCAR-4
DU-145 = tested on: DU-145
PC-3 = tested on: PC-3
NCI-H226 = tested on: NCI-H226
SF-295 = tested on: SF-295
U-251 = tested on: U-251
MOLT-4 = tested on: MOLT-4
SN12C = tested on: SN12C
TK-10 = tested on: TK-10
Hs-578T = tested on: Hs-578T
Malme-3M = tested on: Malme-3M
OVCAR-3 = tested on: OVCAR-3
RXF 393 = tested on: RXF 393
NCI-H23 = tested on: NCI-H23
IGROV-1 = tested on: IGROV-1
NCI-H522 = tested on: NCI-H522
HOP-92 = tested on: HOP-92
COLO 205 = tested on: COLO 205
SF-539 = tested on: SF-539
T47D = tested on: T47D
OVCAR-5 = tested on: OVCAR-5
HT-29 = tested on: HT-29
CAKI-1 = tested on: CAKI-1
SK-MEL-2 = tested on: SK-MEL-2
LOX IMVI = tested on: LOX IMVI
BT-549 = tested on: BT-549
MCF7 = tested on: MCF7
SK-MEL-28 = tested on: SK-MEL-28
UO-31 = tested on: UO-31
SNB-75 = tested on: SNB-75
SW-620 = tested on: SW-620
KM12 = tested on: KM12
NCI-H460 = tested on: NCI-H460
SK-MEL-5 = tested on: SK-MEL-5
A498 = tested on: A498

C/C=C/C=C/c1nc(C#N)c(N)o1
GI50 (MDA-MB-231): > 100 µM (inactive)
GI50 (EKVX): > 100 µM (inactive)
GI50 (SR): > 100 µM (inactive)
GI50 (MDA-N): > 100 µM (inactive)
GI50 (OVCAR-8): > 100 µM (inactive)
GI50 (HCC 2998): > 100 µM (inactive)
GI50 (CCRF-CEM): 7.08 µM (inactive)
GI50 (NCI/ADR-RES): > 100 µM (inactive)
GI50 (SK-OV-3): > 100 µM (inactive)
GI50 (A549): 99.3 µM (inactive)
GI50 (HCT-15): > 100 µM
GI50 (UACC-62): > 100 µM (inactive)
GI50 (SF-268): > 100 µM (inactive)
GI50 (786-0): > 100 µM (inactive)
GI50 (HCT-116): > 100 µM (inactive)
GI50 (M14): > 100 µM (inactive)
GI50 (K562): > 100 µM (inactive)
GI50 (RPMI-8226): > 100 µM (inactive)
GI50 (UACC-257): > 100 µM (inactive)
GI50 (MDA-MB-435): > 100 µM (inactive)
GI50 (HOP-62): > 100 µM (inactive)
GI50 (ACHN): > 100 µM (inactive)
GI50 (SNB-19): > 100 µM (inactive)
GI50 (OVCAR-4): > 100 µM (inactive)
GI50 (DU-145): > 100 µM (inactive)
GI50 (PC-3): 36.6 µM (inactive)
GI50 (NCI-H226): > 100 µM (inactive)
GI50 (SF-295): > 100 µM (inactive)
GI50 (U-251): > 100 µM (inactive)
GI50 (MOLT-4): 63.8 µM (inactive)
GI50 (SN12C): > 100 µM (inactive)
GI50 (TK-10): > 100 µM (inactive)
GI50 (Hs-578T): > 100 µM (inactive)
GI50 (Malme-3M): > 100 µM (inactive)
GI50 (OVCAR-3): > 100 µM (inactive)
GI50 (RXF 393): > 100 µM (inactive)
GI50 (NCI-H23): > 100 µM (inactive)
GI50 (IGROV-1): > 100 µM (inactive)
GI50 (NCI-H522): 41.6 µM (inactive)
GI50 (HOP-92): > 100 µM (inactive)
GI50 (COLO 205): > 100 µM (inactive)
GI50 (SF-539): > 100 µM (inactive)
GI50 (T47D): > 100 µM (inactive)
GI50 (OVCAR-5): > 100 µM (inactive)
GI50 (HT-29): > 100 µM (inactive)
GI50 (CAKI-1): > 100 µM (inactive)
GI50 (SK-MEL-2): > 100 µM (inactive)
GI50 (LOX IMVI): > 100 µM (inactive)
GI50 (BT-549): > 100 µM (inactive)
GI50 (MCF7): > 100 µM (inactive)
GI50 (SK-MEL-28): > 100 µM (inactive)
GI50 (UO-31): 18.3 µM (inactive)
GI50 (SNB-75): > 100 µM (inactive)
GI50 (SW-620): > 100 µM (inactive)

CN1C/C(=C\c2cccs2)C(O)/C(=C/c2cccs2)C1 (centres undefined)
GI50 (MDA-MB-231): > 100 µM (inactive)
GI50 (EKVX): > 100 µM (inactive)
GI50 (MDA-N): > 100 µM (inactive)
GI50 (OVCAR-8): > 100 µM (inactive)
GI50 (HCC 2998): 41.1 µM (inactive)
GI50 (CCRF-CEM): 27 µM (inactive)
GI50 (NCI/ADR-RES): > 100 µM (inactive)
GI50 (SK-OV-3): > 100 µM (inactive)
GI50 (A549): > 100 µM (inactive)
GI50 (HCT-15): > 100 µM
GI50 (UACC-62): > 100 µM (inactive)
GI50 (SF-268): > 100 µM (inactive)
GI50 (786-0): > 100 µM (inactive)
GI50 (HCT-116): 72.4 µM (inactive)
GI50 (M14): > 100 µM (inactive)
GI50 (K562): 57.8 µM (inactive)
GI50 (RPMI-8226): 20.2 µM (inactive)
GI50 (UACC-257): 89.5 µM (inactive)
GI50 (MDA-MB-435): > 100 µM (inactive)
GI50 (HOP-62): > 100 µM (inactive)
GI50 (KM12): > 100 µM (inactive)
GI50 (ACHN): > 100 µM (inactive)
GI50 (SNB-19): > 100 µM (inactive)
GI50 (OVCAR-4): 35.5 µM (inactive)
GI50 (DU-145): > 100 µM (inactive)
GI50 (PC-3): > 100 µM (inactive)
GI50 (NCI-H226): > 100 µM (inactive)
GI50 (SF-295): > 100 µM (inactive)
GI50 (U-251): > 100 µM (inactive)
GI50 (MOLT-4): 25.2 µM (inactive)
GI50 (SN12C): 74.5 µM (inactive)
GI50 (TK-10): > 100 µM (inactive)
GI50 (Hs-578T): > 100 µM (inactive)
GI50 (Malme-3M): 50.1 µM (inactive)
GI50 (OVCAR-3): > 100 µM (inactive)
GI50 (RXF 393): > 100 µM (inactive)
GI50 (NCI-H23): > 100 µM (inactive)
GI50 (IGROV-1): 53 µM (inactive)
GI50 (NCI-H460): > 100 µM (inactive)
GI50 (NCI-H522): 35.1 µM (inactive)
GI50 (SK-MEL-5): > 100 µM (inactive)
GI50 (HOP-92): 20.4 µM (inactive)
GI50 (COLO 205): 87.1 µM (inactive)
GI50 (T47D): 25.8 µM (inactive)
GI50 (OVCAR-5): > 100 µM (inactive)
GI50 (HT-29): > 100 µM (inactive)
GI50 (CAKI-1): 97.5 µM (inactive)
GI50 (SK-MEL-2): > 100 µM (inactive)
GI50 (A498): > 100 µM (inactive)
GI50 (LOX IMVI): > 100 µM (inactive)
GI50 (BT-549): > 100 µM (inactive)
GI50 (MCF7): 48.5 µM (inactive)
GI50 (SK-MEL-28): > 100 µM (inactive)
GI50 (UO-31): 97.3 µM (inactive)
GI50 (SW-620): > 100 µM (inactive)
